Experimental data published in patent publication US9572807B2, “Protocols for treatment of major depressive disorder (MDD)” (NEURALSTEM, INC., priority 2014, dated 2017).

Experiments:
[1] = test system: patients with symptomatic MDD; assay: Clinician Global Impression-Improvement Scale (CGI-I), Phase 1B study; assay type: in vivo, human; conditions: for Cohen's d value, CGI-I (ANCOVA): all test groups (n=18) vs placebo (n=6), Day 7 as baseline
Protocol: (§1) A double-blind, placebo-controlled, multiple-ascending-dose study employing the compound of formula (1) was performed in patients with symptomatic MDD. Twenty-four subjects were recruited, with their diagnosis and illness severity confirmed through an independent, remote SAFER interview (Targum, S. D., et al., CNS Neurosci. Ther. (2008) 14:2-9) from the Massachusetts General Hospital (MGH) Clinical Trials Network and Institute (CTNI) raters. Each patient underwent a screening for eligibility (Day −37 to Day −6 or −3) and eligible patients were admitted into the unit on Day −5 to complete their wash-out and be reconfirmed for eligibility and for baseline assessments. The patients received daily dosing of formula (1) or placebo for 28 days starting on Day 1 and were followed for safety, pharmacokinetics (PK) and pharmacodynamics (PD) until discharge. At the conclusion of in-house dosing (Day 28), patients remained in the unit for up to 3 additional days, at the psychiatrist's discretion. On Day 35 (±3), Day 42 (±3), Day 49 (±3) and Day 70 (±3) outpatient follow-up visits took place. Patients returned to the unit for extensive follow-up on Day 56 (±3) and Day 84 (±3) (End-of-study).
(§2) The subjects were randomized into four groups of 6 patients each to receive 40 mg of formula (1) per dose administered orally in gelatin capsules once daily, twice daily or three times daily to provide 40 or 80 or 120 mg daily of formula (1) or placebo for 28 days. Each cohort included at least 3 female subjects. In this example, qEEG was used to characterize pharmacodynamic effects.
(§3) In this example, the results of the study of Example 1 were evaluated by the efficacy assessments that included the Montgomery-Asberg Depression Rating Scale (MADRS), the Clinician Global Impression-Improvement (CGI-I), the Symptoms of Depression Questionnaire (SDQ) and the Cognitive and Physical Functioning Questionnaire (CPFQ). […] These improvements persisted over time during the follow-up for MADRS, SDQ and CPFQ.
(§4) Baseline values were adjusted for initial differences and the results for the placebo group (n=6) and the tested groups (n=18) were collapsed. The sizes of the effects were estimated as Cohen's d group mean differences where d=0.20 indicates only a small difference, d=0.50 indicates a medium difference and d=0.80 indicates a large difference. Cohen's d values are described in Cohen, J. (1988) Statistical Power Analysis for the Behavioral Sciences (2nd ed.), Lawrence Erlbaum Associates. D values are used when the scale of a dependent variable is not inherently meaningful, the difference between means are considered in standardized units. That is, effect size is measured in terms of the number of standard deviations by which the means differ. Two commonly used measures are Hedges' g and Cohen's d. Both of these measures consist of the difference between means divided by the standard deviation. They differ only in that Hedges' g uses the version of the standard deviation formula in which division is by N−1, whereas Cohen's d uses the version in which division is by N.
(§5) Covariance is a measure of how much two variables change together and how strong the relationship is between them (Lenth, R. V., The American Statistician (2001) 55:187-193). Analysis of covariance (ANCOVA) is a general linear model which blends analysis of variance (ANOVA) and regression. ANCOVA evaluates whether population means of a dependent variable (DV) are equal across levels of a categorical independent variable (IV), while statistically controlling for the effects of other continuous variables that are not of primary interest, known as covariates (CV). Therefore, when performing ANCOVA, the DV means are adjusted to what they would be if all groups were equal on the CV. In the CGI-I assay, Day 7 was used as the baseline value; in the remaining assays, Day 0 was used as baseline.

[2] = test system: patients with symptomatic MDD; assay: Symptoms of Depression Questionnaire (SDQ), Phase 1B study; assay type: in vivo, human; conditions: for Cohen's d value, SDQ (ANCOVA): all test groups (n=18) vs placebo (n=6)
Protocol: as §1, §2, §3, §4, §5

[3] = Day 14, 1x = 40 mg/day oral (n=6)
[4] = Day 14, 2x = 80 mg/day oral (n=6)
[5] = Day 14, 3x = 120 mg/day oral (n=6)
[6] = Day 14, all three dose groups pooled (n=18)
[7] = Day 56 (follow-up after 28 days dosing), 1x = 40 mg/day oral
[8] = Day 56 (follow-up after 28 days dosing), 2x = 80 mg/day oral
[9] = Day 56 (follow-up after 28 days dosing), 3x = 120 mg/day oral
[10] = Day 56 (follow-up after 28 days dosing), all three dose groups pooled (n=18)
[11] = Day 84 (follow-up after 28 days dosing), 1x = 40 mg/day oral
[12] = Day 84 (follow-up after 28 days dosing), 2x = 80 mg/day oral
[13] = Day 84 (follow-up after 28 days dosing), 3x = 120 mg/day oral
[14] = Day 84 (follow-up after 28 days dosing), all three dose groups pooled

With CC(C)CCNc1ncccc1C(=O)N1CCN(Cc2ccccc2)CC1 [formula (1)] the “Cohen's d value, CGI-I (ANCOVA)” value ([1]; 70 days) was 1.13, the “CGI-I Means” value ([1]; Day 7, 1x = 40 mg/day oral (n=6)) was 3.5 and the “CGI-I Means” value ([1]; Day 7, 2x = 80 mg/day oral (n=6)) was 3.8333. For the same compound, the “CGI-I Means” value ([1]; Day 7, 3x = 120 mg/day oral (n=6)) was 3.6667, the “CGI-I Means” value ([1]; Day 7, all three dose groups pooled (n=18)) was 3.6667 and the “CGI-I Means” value [1, 3] was 3. The “CGI-I Means” value [1, 4] was 3.3333, the “CGI-I Means” value [1, 5] was 3.1667 and the “CGI-I Means” value [1, 6] was 3.1667. The “CGI-I Means” value ([1]; Day 21, 1x = 40 mg/day oral (n=6)) was 2.8333, the “CGI-I Means” value ([1]; Day 21, 2x = 80 mg/day oral (n=6)) was 3.3333 and the “CGI-I Means” value ([1]; Day 21, 3x = 120 mg/day oral (n=6)) was 3.3333. The “CGI-I Means” value ([1]; Day 21, all three dose groups pooled (n=18)) was 3.1667, the CGI-I value ([1]; Day 28, 40 mg/day, FIG. 1, placebo subset (n=2) 3.5) was “approximately 2.5” and the CGI-I value ([1]; Day 28, 80 mg/day (40 mg two times daily), FIG. 1) was 3. For the same compound, the “CGI-I value versus controls” value ([1]; Day 28, 120 mg/day, FIG. 1) was “no difference from controls”, the “CGI-I Means” value ([1]; Day 29, 1x = 40 mg/day oral (n=6)) was 2.5 and the “CGI-I Means” value ([1]; Day 29, 2x = 80 mg/day oral (n=6)) was 2.8333. The “CGI-I Means” value ([1]; Day 29, 3x = 120 mg/day oral (n=6)) was 3.1667, the “CGI-I Means” value ([1]; Day 29, all three dose groups pooled (n=18)) was 2.8333 and the “Cohen's d value, CGI-I (ANCOVA)” value ([1]; Day 30) was 0.57. The “CGI-I Means” value ([1]; Day 35 (follow-up after 28 days dosing), 1x = 40 mg/day oral) was 3.8333, the “CGI-I Means” value ([1]; Day 35 (follow-up after 28 days dosing), 2x = 80 mg/day oral) was 2.8333 and the “CGI-I Means” value ([1]; Day 35 (follow-up after 28 days dosing), 3x = 120 mg/day oral) was 3. For the same compound, the “CGI-I Means” value ([1]; Day 35 (follow-up after 28 days dosing), all three dose groups pooled (n=18)) was 3.2222, the “CGI-I Means” value ([1]; Day 42 (follow-up after 28 days dosing), 1x = 40 mg/day oral) was 3.8333 and the “CGI-I Means” value ([1]; Day 42 (follow-up after 28 days dosing), 2x = 80 mg/day oral) was 3. For the same compound, the “CGI-I Means” value ([1]; Day 42 (follow-up after 28 days dosing), 3x = 120 mg/day oral) was 3, the “CGI-I Means” value ([1]; Day 42 (follow-up after 28 days dosing), all three dose groups pooled (n=18)) was 3.2778 and the “CGI-I Means” value ([1]; Day 49 (follow-up after 28 days dosing), 1x = 40 mg/day oral) was 3.5. The “CGI-I Means” value ([1]; Day 49 (follow-up after 28 days dosing), 2x = 80 mg/day oral) was 3.3333, the “CGI-I Means” value ([1]; Day 49 (follow-up after 28 days dosing), 3x = 120 mg/day oral) was 2.8333 and the “CGI-I Means” value ([1]; Day 49 (follow-up after 28 days dosing), all three dose groups pooled (n=18)) was 3.2222. The “CGI-I Means” value [1, 7] was 3, the “CGI-I Means” value [1, 8] was 3 and the “CGI-I Means” value [1, 9] was 2.1667. For the same compound, the “CGI-I Means” value [1, 10] was 2.7222, the “CGI-I Means” value ([1]; Day 70 (follow-up after 28 days dosing), 1x = 40 mg/day oral) was 3.6667 and the “CGI-I Means” value ([1]; Day 70 (follow-up after 28 days dosing), 2x = 80 mg/day oral) was 3.5. For the same compound, the “CGI-I Means” value ([1]; Day 70 (follow-up after 28 days dosing), 3x = 120 mg/day oral) was 3.3333, the “CGI-I Means” value ([1]; Day 70 (follow-up after 28 days dosing), all three dose groups pooled (n=18)) was 3.5 and the “CGI-I Means” value [1, 11] was 3.3333. For the same compound, the “CGI-I Means” value [1, 12] was 2.6667, the “CGI-I Means” value [1, 13] was 2 and the “CGI-I Means” value [1, 14] was 2.7059. The SDQ score ([2]; 40 mg/day, FIG. 3, placebo (n=2) 3.1) was 2.5, the SDQ score ([2]; 80 mg/day, FIG. 3, controls (n=2) 3.5) was 2.7 and the “SDQ score versus controls” value ([2]; 120 mg/day, at 28 days, FIG. 3) was “slightly higher than controls”. For the same compound, the “SDQ Means” value [2, 3] was 3.1174, the “SDQ Means” value [2, 4] was 2.8485 and the “SDQ Means” value [2, 5] was 2.822. For the same compound, the “SDQ Means” value [2, 6] was 2.9293, the “SDQ Means” value ([2]; Day 28, 1x = 40 mg/day oral (n=6)) was 2.5795 and the “SDQ Means” value ([2]; Day 28, 2x = 80 mg/day oral (n=6)) was 2.6856. The “SDQ Means” value ([2]; Day 28, 3x = 120 mg/day oral (n=6)) was 2.6439, the “SDQ Means” value ([2]; Day 28, all three dose groups pooled (n=18)) was 2.6364 and the “Cohen's d value, SDQ (ANCOVA)” value ([2]; Day 30) was 0.90. For the same compound, the “SDQ Means” value [2, 7] was 2.6023, the “SDQ Means” value [2, 8] was 2.3371 and the “SDQ Means” value [2, 9] was 2.5909. The “SDQ Means” value [2, 10] was 2.5101, the “SDQ Means” value [2, 11] was 2.6364 and the “SDQ Means” value [2, 12] was 2.4508. The “SDQ Means” value [2, 13] was 2.4318, the “SDQ Means” value [2, 14] was 2.5107 and the “Cohen's d value, SDQ (ANCOVA)” value ([2]; Day 85) was 1.10. The “SDQ Means” value ([2]; Day −5 (baseline before dosing), 1x = 40 mg/day group) was 3.4508, the “SDQ Means” value ([2]; Day −5 (baseline before dosing), 2x = 80 mg/day group) was 3.2652 and the “SDQ Means” value ([2]; Day −5 (baseline before dosing), 3x = 120 mg/day group) was 3.4242. For the same compound, the “SDQ Means” value ([2]; Day −5 (baseline before dosing), all three dose groups pooled (n=18)) was 3.3801.
